Measured values published in patent US20140162974A1, “METHODS FOR MODULATION OF PHOSPHORUS AND FGF23” (Luitpold Pharmaceuticals, Inc., priority 2012, published 2014).
Entries after “also recorded” stand apart in the source; their conditions may differ.

Assays:
Type in all cases: in vivo, human
[1] = test system: C-terminal FGF23 (cFGF23); assay: Example 3 trial: plasma C-terminal FGF23; details: for effect on cFGF23 levels: in vivo; for lowering of cFGF23 levels within 24 hours: intravenous iron in iron deficient women; for C-terminal FGF23, Day 1 / C-terminal FGF23, Day 7 / C-terminal FGF23, Day 14 / C-terminal FGF23, Day 35: mean ± standard error, unit from the 3rd table
Protocol: (§1) Study visits were on Days 0 (when iron was infused), 1 (24 hours after iron infusion), 7, 14, and 35. The primary objectives were to determine the effect of iron deficiency on cFGF23 and iFGF23 levels and the effect of intravenous iron on iFGF23 and cFGF23 levels.
(§2) Randomization occurred centrally via a fax-based system. […] The complete dose was infused over 15 minutes on day 0. […] An initial test dose of 25 mg was administered slowly over 5 minutes.
(§3) Laboratory testing of blood and three-hour urine collections was performed at the screening visit and on study days 0 (when iron was infused), 1 (24 hours after iron infusion), 7, 14, and 35 (see e.g., FIG. 2A). Any subject who experienced a reduction in serum phosphate below the normal range after day 0 underwent additional phosphate measurements at 14 day intervals following day 35 until the level returned to the normal reference range. Safety evaluations of all subjects included ascertainment of adverse events, physical examinations at all study visits, and laboratory assessments. Any subject who withdrew from the study received a follow-up phone call to ascertain adverse events 30 days after they received study drug.
(§4) Blood and urine samples were sent to a central laboratory for analysis (Covance Central Laboratory Service, Indianapolis, Ind.). Hemoglobin, blood counts, iron indices, electrolytes, and serum and urinary phosphate and creatinine were measured with standard, automated, multi-analyte techniques. Urinary fractional excretion of phosphate (FEPi) was calculated from the three-hour, morning urine collections as urinary phosphate x serum creatinine/serum phosphate x urinary creatinine. Serum levels of 25-hydroxyvitamin D and 1,25-dihydroxyvitamin D were measured in duplicate by radioimmunoassay (DiaSorin, Stillwater, Minn.) with intra-assay coefficients of variation (CV)<11.6%. Plasma C-terminal FGF23 (cFGF23) was measured in duplicate in EDTA-plasma samples using a human FGF23 immunometric assay capable of detecting both the intact peptide and its C-terminal fragments (Immutopics, San Clemente, Ca) with intra-assay CV≦3.8%. Because cFGF23 testing was performed in parallel with rolling enrollment and follow-up, all cFGF23 assay plates tested combinations of baseline and post-intervention samples from multiple study participants. Serum intact FGF23 (iFGF23) was measured in batches of baseline and post-intervention samples from multiple study participants at study end using an immunometric assay that detects the intact peptide exclusively (Kyowa Medex Company, Shizuoka, Japan) with intra-assay CV<2.7%. Serum hepcidin levels were measured on days 0, 7, and 35 using an enzyme-linked immunosorbent assay (Intrinsic LifeSciences, La Jolla, Calif.) with intra-assay CV≦19%. Urinary amino acids, glucose, albumin, and beta 2 microglobulin were measured to test for the possibility of global proximal tubular dysfunction. Urinary deoxypyridinoline cross link, and serum osteocalcin and bone-specific alkaline phosphatase were measured to assess bone turnover.
(§5) Baseline characteristics are presented as mean±standard error for continuous variables and as proportions for categorical variables. The association between iron indices and baseline and change in FGF23 levels was assessed with Spearman correlations. Restricted maximum likelihood-based repeated measures analyses (linear mixed models) that considered the effects of treatment, visit, and treatment x time interaction, with baseline values treated as a fixed covariate were used for the primary analyses of mean changes from baseline in continuous markers of phosphate homeostasis. The models employed unstructured covariance structures without imputing missing values. All outcome variables that were not normally distributed were analyzed after natural log-transformation. […]

[2] = test system: hemoglobin, ferritin, TSAT, hepcidin; assay: Example 3 trial: erythropoiesis and iron parameters; parameters: Mean increase in ferritin from baseline to highest value: unit not given here; details: for Mean increase in hepcidin from baseline to highest value / effect of a single dose on hemoglobin and iron indices / proportion of group in which hemoglobin increased by 2.0 g/dL: in vivo; for Hemoglobin increase ≧2.0 g/dL, n (%): intention-to-treat in safety population, anytime to day 35; for Mean increase in ferritin from baseline to highest value / Mean increase in hemoglobin from baseline to highest value / Mean increase in transferrin saturation from baseline to highest value: mean ± standard error; for effect on TSAT and serum hepcidin levels: p≦0.001; for serum hepcidin levels by day 7: remained significantly elevated on day 35
Protocol: as §1, §2, §3
(§6) The pre-specified primary endpoints were changes in blood and urine markers of phosphate and bone metabolism among the evaluable population, defined as those subjects with baseline and at least one post-randomization set of FGF23 and blood and urinary phosphate levels. Secondary endpoints included the proportion of subjects achieving a hemoglobin increase […] anytime between baseline and day 35, and the change from baseline to highest hemoglobin, ferritin, and TSAT anytime during the 35-day study period. Additional safety endpoints included incidence, severity, and seriousness of adverse events, and incidence of treatment-emergent abnormal clinical laboratory values in the safety population, defined as all subjects who received the study drug regardless of subsequent laboratory testing.
as §4, with “turnover. […]” for “turnover.”

[3] = test system: serum phosphate, urinary fractional excretion of phosphate; assay: Example 3 trial: serum and urinary phosphate; details: for mean urinary FEPi over time compared with baseline: by day 7 through day 35; for course of serum phosphate after day 1: through day 35
Protocol: as §1, §2, §3, §6, §4
Baseline characteristics are presented as mean±standard error for continuous variables and as proportions for categorical variables. […]

intact FGF23 (iFGF23) = assay: Example 3 trial: serum intact FGF23; details: for effect on iFGF23 levels: by day 1 (24 hours); for Intact FGF23, Day 1 / Intact FGF23, Day 7 / Intact FGF23, Day 14 / Intact FGF23, Day 35: mean ± standard error, unit from the 3rd table
Protocol: as §1, §2, §3, §4, §5

Q: With iron dextran [reference compound] as the substance, how does the “C-terminal FGF23, Change from baseline” value ([1]; Day 1) read?
A: −82.5%

Q: And the “C-terminal FGF23, Change from baseline” value ([1]; Day 7)?
A: −85.6%

Q: What about the “C-terminal FGF23, Change from baseline” value ([1]; Day 14) of the same substance?
A: −87.3%

Q: And the “C-terminal FGF23, Change from baseline” value ([1]; Day 35)?
A: −80.0%

Q: What about the “effect on cFGF23 levels” value [1] of the same substance?
A: rapidly lowered

Q: And the “lowering of cFGF23 levels within 24 hours” value [1]?
A: 80%

Q: And the “C-terminal FGF23, Day 1” value [1]?
A: 152 ± 17.5 RU/mL

Q: What about the “C-terminal FGF23, Day 7” value [1] of the same substance?
A: 114 ± 17.7 RU/mL

Q: What about the “C-terminal FGF23, Day 14” value [1] of the same substance?
A: 107 ± 16.0 RU/mL

Q: And the “C-terminal FGF23, Day 35” value [1]?
A: 170 ± 51.2 RU/mL

Q: What about the “Mean increase in hepcidin from baseline to highest value” [2] of the same substance?
A: 77.8 ng/mL

Q: What about the “effect of a single dose on hemoglobin and iron indices” value [2] of the same substance?
A: significantly increase

Q: What about the “proportion of group in which hemoglobin increased by 2.0 g/dL” value [2] of the same substance?
A: 53%

Q: And the “Hemoglobin increase ≧2.0 g/dL, n (%)” value [2]?
A: 16 (53) n (%)

Q: And the “Mean increase in ferritin from baseline to highest value” [2]?
A: 189 ± 21

Q: And the “Mean increase in hemoglobin from baseline to highest value” [2]?
A: 2.2 ± 0.2 g/dL

Q: What about the “Mean increase in transferrin saturation from baseline to highest value” [2] of the same substance?
A: 44 ± 3.0%

Q: And the “effect on TSAT and serum hepcidin levels” value [2]?
A: increased TSAT and serum hepcidin levels significantly

Q: And the “serum hepcidin levels by day 7” value [2]?
A: significantly increased

Q: What about the “mean urinary FEPi over time compared with baseline” value [3] of the same substance?
A: no significant change over time

Q: What about the “mean urinary fractional excretion of phosphate (FEPi) on day 1” value ([3]; in vivo) of the same substance?
A: trended downwards

Q: And the “serum phosphate within 24 hours after iron administration” value ([3]; in vivo)?
A: increased modestly

Q: What about the “course of serum phosphate after day 1” value [3] of the same substance?
A: returned to near baseline levels by day 7 and remained stable for the remainder of the study

Q: What about the “Intact FGF23, Change from baseline” value (intact FGF23 (iFGF23); Day 1) of the same substance?
A: −13.4%

Q: What about the “Intact FGF23, Change from baseline” value (intact FGF23 (iFGF23); Day 7) of the same substance?
A: −4.4%

Q: And the “Intact FGF23, Change from baseline” value (intact FGF23 (iFGF23); Day 14)?
A: −1.3%

Q: And the “Intact FGF23, Change from baseline” value (intact FGF23 (iFGF23); Day 35)?
A: −9.3%

Q: And the “effect on iFGF23 levels” value (intact FGF23 (iFGF23))?
A: no significant changes; also recorded: but not iron dextran induced a significant increase

Q: And the “Intact FGF23, Day 1” value (intact FGF23 (iFGF23))?
A: 24.6 ± 1.9 pg/mL

Q: What about the “Intact FGF23, Day 7” value (intact FGF23 (iFGF23)) of the same substance?
A: 27.5 ± 1.7 pg/mL

Q: And the “Intact FGF23, Day 14” value (intact FGF23 (iFGF23))?
A: 28.4 ± 2.1 pg/mL

Q: What about the “Intact FGF23, Day 35” value (intact FGF23 (iFGF23)) of the same substance?
A: 28.3 ± 1.7 pg/mL

Q: Which “C-terminal FGF23, Change from baseline” value ([1]; Day 1) does the source give for “polynuclear iron (III)-hydroxide 4(R)-(poly-(1→4)-O-α-glucopyranosyl)-oxy-2(R),3(S),5(R),6-tetrahydroxy-hexanoate [FCM]” here?
A: −78.6%

Q: What about the “C-terminal FGF23, Change from baseline” value ([1]; Day 7) of the same substance?
A: −80.9%

Q: What about the “C-terminal FGF23, Change from baseline” value ([1]; Day 14) of the same substance?
A: −77.5%

Q: What about the “C-terminal FGF23, Change from baseline” value ([1]; Day 35) of the same substance?
A: −78.9%

Q: What about the “effect on cFGF23 levels” value [1] of the same substance?
A: rapidly lowered

Q: And the “lowering of cFGF23 levels within 24 hours” value [1]?
A: 80%

Q: And the “C-terminal FGF23, Day 1” value [1]?
A: 177 ± 12.4 RU/mL

Q: And the “C-terminal FGF23, Day 7” value [1]?
A: 165 ± 34.9 RU/mL

Q: What about the “C-terminal FGF23, Day 14” value [1] of the same substance?
A: 170 ± 55.8 RU/mL

Q: What about the “C-terminal FGF23, Day 35” value [1] of the same substance?
A: 182 ± 73.7 RU/mL

Q: And the “cFGF23 in FCM subjects who did vs did not develop serum phosphate<2.0 mg/dL” value ([1]; stratified analysis)?
A: decreased similarly in both groups

Q: And the “absolute difference in proportion with hemoglobin increase, FCM vs iron dextran” value ([2]; 95% CI −23.2, 36.6%, p=0.79)?
A: 6.7%

Q: What about the “Mean increase in hepcidin from baseline to highest value” [2] of the same substance?
A: 33.4 ng/mL

Q: What about the “effect of a single dose on hemoglobin and iron indices” value [2] of the same substance?
A: significantly increase

Q: What about the “proportion of group in which hemoglobin increased by 2.0 g/dL” value [2] of the same substance?
A: 60%

Q: And the “Hemoglobin increase ≧2.0 g/dL, n (%)” value [2]?
A: 15 (60) n (%)

Q: What about the “Mean increase in ferritin from baseline to highest value” [2] of the same substance?
A: 306 ± 41

Q: What about the “Mean increase in hemoglobin from baseline to highest value” [2] of the same substance?
A: 2.0 ± 0.3 g/dL

Q: And the “Mean increase in transferrin saturation from baseline to highest value” [2]?
A: 68 ± 6.4%

Q: What about the “effect on TSAT and serum hepcidin levels” value [2] of the same substance?
A: increased TSAT and serum hepcidin levels significantly

Q: What about the “serum hepcidin levels by day 7” value [2] of the same substance?
A: significantly increased

Q: And the “increase in serum ferritin by day 7 compared to iron dextran” value ([2]; thereafter levels similar)?
A: greater increase

Q: What about the “day of nadir in serum phosphate” value ([3]; FCM subjects stratified by serum phosphate<2.0 mg/dL) of the same substance?
A: 14 days

Q: And the “mean urinary FEPi over time compared with baseline” value [3]?
A: increased significantly compared with baseline

Q: And the “decrease in serum phosphate by day 7” value ([3]; evaluable population)?
A: 0.6 mg/dL

Q: What about the “decrease in serum phosphate by day 14” value ([3]; evaluable population) of the same substance?
A: 0.7 mg/dL

Q: And the “mean urinary fractional excretion of phosphate (FEPi) on day 1” value ([3]; in vivo)?
A: trended downwards

Q: What about the “serum phosphate within 24 hours after iron administration” value ([3]; in vivo) of the same substance?
A: increased modestly

Q: What about the “subjects in whom serum phosphate decreased to <2.0 mg/dL” value ([3]; in vivo) of the same substance?
A: 10 subjects

Q: And the “FEPi in FCM low phosphate subgroup vs the remaining” value ([3]; stratified analysis, peaked by day 14)?
A: increased to a significantly greater extent in the low phosphate subgroup

Q: What about the “course of serum phosphate after day 1” value [3] of the same substance?
A: returning towards normal by day 35; also recorded: transient and asymptomatic reductions

Q: And the “Intact FGF23, Change from baseline” value (intact FGF23 (iFGF23); Day 1)?
A: 128.0%

Q: What about the “Intact FGF23, Change from baseline” value (intact FGF23 (iFGF23); Day 7) of the same substance?
A: 91.8%

Q: And the “Intact FGF23, Change from baseline” value (intact FGF23 (iFGF23); Day 14)?
A: 59.1%

Q: What about the “Intact FGF23, Change from baseline” value (intact FGF23 (iFGF23); Day 35) of the same substance?
A: 2.0%

Q: And the “effect on iFGF23 levels” value (intact FGF23 (iFGF23))?
A: increased significantly by day 1; also recorded: significant increase

Q: What about the “Intact FGF23, Day 1” value (intact FGF23 (iFGF23)) of the same substance?
A: 65.2 ± 8.0 pg/mL

Q: What about the “Intact FGF23, Day 7” value (intact FGF23 (iFGF23)) of the same substance?
A: 54.9 ± 18.0 pg/mL

Q: And the “Intact FGF23, Day 14” value (intact FGF23 (iFGF23))?
A: 45.8 ± 6.9 pg/mL

Q: What about the “Intact FGF23, Day 35” value (intact FGF23 (iFGF23)) of the same substance?
A: 28.1 ± 2.9 pg/mL

Q: And the “iFGF23 in FCM subjects who developed serum phosphate<2.0 mg/dL vs the remaining” value (intact FGF23 (iFGF23); stratified analysis)?
A: greater iFGF23 by day 1 that persisted through day 14
